The source of these data is patent EP0329223A2, “Acetylenic and triyne cyclic carbonates” (Merck & Co., Inc., priority 1988, dated 1989).

One experiment has as its system Candida albicans MY 1055. The experiment in a line: Antifungal assay, minimum inhibitory concentration. Type of experiment: cell-based. To be noted: lowest concentration that inhibits visible growth, Yeast Nitrogen Base/0.5% glucose, 37°C for 18 hours, starting inoculum 3-5 x 10⁻⁴ CFU/ml. The procedure: Antifungal activity was determined against Candida albicans MY 1055, a yeast strain maintained by Merck and Co; Rahway, New Jersey. Minimum inhibitory concentrations were determined using a starting inoculum of […]. The medium was Yeast Nitrogen Base/0.5% glucose. Test compounds were dissolved in a minimum amount of 50% aqueous ethanol and diluted to final concentrations with yeast medium. Samples were incubated at 37°C for 18 hours. The minimum inhibitory concentration (MIC), reported in µg/ml, is the lowest concentration of test compound that inhibits visible growth.

In experiment [1] the target is T1, Acetoacetyl-coenzyme A thiolase (Rattus norvegicus, UniProt Q5XI22).
T1 construct: prepared from the livers of Sprague Dawley rats treated in the diet for one week with 0.075% lovastatin to induce the enzyme; from tissue; host or cells: liver of lovastatin-treated Sprague Dawley rats
The experiment in a line: Acetoacetyl-coenzyme A thiolase inhibition, coupled spectrophotometric assay (NADH oxidation at 340 nm). Type of experiment: biochemical, Sprague Dawley rats. The procedure: Acetoacetyl-coenzyme A thiolase was prepared from the livers of Sprague Dawley rats treated in the diet for one week with 0.075% lovastatin to induce the enzyme. […] The 0.06 M eluate described by Mehrabian et al. contained the acetoacetyl-coenzyme A thiolase. The isolate was concentrated by ammonium sulfate precipitation, dissolved in the buffer used for elution, and stored at -70°C.
Reaction was measured at room temperature for a time period necessary to produce a measurable reaction rate. An IC₅₀, the concentration that inhibits 50% of the acetoacetyl-coenzyme A thiolase activity, was determined for each test compound. […]

Where [2] appears, read: enzyme from rat liver (lovastatin-induced), pH 7.5, room temperature, 2.85 mM acetoacetyl-coenzyme A, read-out: IC₅₀.

≈ marks a conversion by molar mass, not a printed value. Where two headings read alike, the source gives them in different places.

T1 sequence (Q5XI22 whole entry): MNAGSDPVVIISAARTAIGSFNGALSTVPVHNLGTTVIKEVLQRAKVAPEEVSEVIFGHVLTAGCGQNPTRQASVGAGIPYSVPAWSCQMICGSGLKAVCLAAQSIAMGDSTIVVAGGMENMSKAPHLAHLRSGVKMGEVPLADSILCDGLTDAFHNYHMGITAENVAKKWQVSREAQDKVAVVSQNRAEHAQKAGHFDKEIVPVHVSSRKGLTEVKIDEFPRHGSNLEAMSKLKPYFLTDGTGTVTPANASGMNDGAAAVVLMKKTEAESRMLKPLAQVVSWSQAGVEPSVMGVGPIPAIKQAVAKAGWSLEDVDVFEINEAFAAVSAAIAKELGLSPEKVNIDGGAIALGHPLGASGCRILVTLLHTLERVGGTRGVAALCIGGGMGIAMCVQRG

In general, MIC refers to the smallest concentration in the dilution series that meets the test's criterion for growth inhibition. Turning to “5-(1(R)-Methoxy-2,4,6-octatriynyl)-2-oxo-4(S),5(S)-1,3 dioxolane-4-heptanoic acid, methyl ester [Ex. 13]”, the MIC in the experiment with Candida albicans MY 1055 was 5 µg/mL. The IC50 in experiment [1] (setting [2]) is 560 nM. Take `COC(=O)CCCCCC[C@@H]1OC(=O)O[C@H]1C(O)C#CC#CC#C[Si](C)(C)C` (single isomer, unassigned) [Ex. 5]: the MIC in the experiment with Candida albicans MY 1055 (read-out: MIC) was found to be 0.078 µg/mL (≈ 0.193 µM). Also, the IC50 in experiment [1] was found to be 62 nM.

Consider `COC(=O)CCCCCC[C@@H]1OC(=O)O[C@H]1C(O)C#CC#CC#C[Si](C)(C)C` (single isomer, unassigned) [Ex. 6], for which the MIC with Candida albicans MY 1055 (read-out: MIC) was 0.6 µg/mL (≈ 1.48 µM). The compound further yielded an IC50 in experiment [1] of 990 nM. `C#CC#CC#C[C@@H](O)[C@@H]1OC(=O)O[C@H]1CCCCCCC(=O)OC` [Ex. 17, 5-(1(R)-Hydroxy-2,4,6-heptatriynyl)-2-oxo-4(S),5(S)-1,3-dioxolane-4-heptanoic acid, methyl ester]: the IC50 in experiment [1] (setting [2]) came out at 24 nM. With `C#CC#CC#C[C@@H](OC(C)=O)[C@@H]1OC(=O)O[C@H]1CCCCCCC(=O)OC` [Ex. 18, 5-(1(R)-(Acetyloxy)-2,4,6-heptatriynyl)-2-oxo-4(S),5(S)-1,3-dioxolane-4-heptanoic acid, methyl ester], the IC50 in experiment [1] (setting [2]) is 150 nM.

For `C#CC#CC#C[C@@H](OC(C)=O)[C@@H]1OC(=O)O[C@H]1CCCCCCC(=O)O` [Ex. 19, 5-(1(R)-(Acetyloxy)-2,4,6-heptatriynyl)-2-oxo-4(S),5(S)-1,3-dioxolane-4-heptanoic acid], the IC50 in experiment [1] (setting [2]) stood at 9 nM.

In the case of `C#CC#CC#C[C@@H](OC)[C@@H]1OC(=O)O[C@H]1CCCCCCC(=O)OC` [Ex. 20, 5-(1(R)-Methoxy-2,4,6-heptatriynyl)-2-oxo-4(S),5(S)-1,3-dioxolane-4 heptanoic acid, methyl ester], the IC50 in experiment [1] (setting [2]) was 46 nM.
